Data taken from ChEMBL document CHEMBL4177667, “Design, synthesis, and anticancer properties of isocorydine derivatives” (Bioorg Med Chem, 2017).
pIC50: −log10 of the molar value. Active and inactive are the calls of the source. No cut-off for these calls is given here.

How the values were obtained:
HeLa = experiment: cells; details: Homo sapiens, 48 h
HepG2 [1] = experiment: cells; details: Homo sapiens, HepG2, 48 h
MGC-803 = experiment: Antiproliferative activity against human MGC803 cells after 48 hrs by MTT assay; type: functional, cell-based; details: MGC-803, 48 h
HepG2 [2] = experiment: Upregulation of vimentin protein levels in human HepG2 cells at 4 ug/ml after 48 hrs by Western blot analysis; type: functional, cell-based
H22 [3] = experiment: Antitumor activity against mouse H22 cells implanted in mouse assessed as tumor growth inhibition at 50 mg/kg, ip qd administered for 10 consecutive days measured after 24 hrs post last dose relative to control; type: functional; details: read-out: TGI
HepG2 [4] = experiment: Downregulation of beta-Catenin protein levels in human HepG2 cells after 48 hrs by Western blot analysis; type: functional, cell-based
HepG2 [5] = experiment: Downregulation of Ki67 protein levels in human HepG2 cells after 48 hrs by Western blot analysis; type: functional, cell-based
HepG2 [6] = experiment: Downregulation of C-myc protein levels in human HepG2 cells after 48 hrs by Western blot analysis; type: functional, cell-based
HepG2 [7] = experiment: Downregulation of cyclin D1 protein levels in human HepG2 cells after 48 hrs by Western blot analysis; type: functional, cell-based
HepG2 [8] = experiment: Cell cycle arrest in human HepG2 cells assessed as increase in accumulation of cells at G0/G1 phase at 4 ug/ml after 48 hrs by propidium iodide staining-based flow cytometric analysis; type: functional
HepG2 [9] = experiment: Cell cycle arrest in human HepG2 cells assessed as decrease in accumulation of cells at S phase at 4 ug/ml after 48 hrs by propidium iodide staining-based flow cytometric analysis; type: functional
HepG2 [10] = experiment: Synergistic downregulation of beta-catenin protein levels in human HepG2 cells at 5 ug/ml after 48 hrs in presence of sorafenib by Western blot analysis; type: functional, cell-based
HepG2 [11] = experiment: Synergistic downregulation of cyclin D1 protein levels in human HepG2 cells at 5 ug/ml after 48 hrs in presence of sorafenib by Western blot analysis; type: functional, cell-based
H22 [12] = experiment: Antitumor activity against mouse H22 cells implanted in mouse assessed as tumor growth inhibition at 100 mg/kg, ip or ig qd administered for 10 consecutive days measured after 24 hrs post last dose relative to control; type: functional; details: read-out: TGI
HepG2 [13] = experiment: Synergistic upregulation of vementin protein levels in human HepG2 cells at 5 ug/ml after 48 hrs in presence of sorafenib by Western blot analysis; type: functional, cell-based
H22 [14] = experiment: Antitumor activity against mouse H22 cells implanted in mouse assessed as tumor growth inhibition at 50 mg/kg, ip or ig qd administered for 10 consecutive days measured after 24 hrs post last dose relative to control; type: functional; details: read-out: TGI
HepG2 [15] = experiment: Upregulation of vimentin protein levels in human HepG2 cells at 2.5 to 10 ug/ml after 48 hrs by Western blot analysis; type: functional, cell-based
H22 [16] = experiment: Synergistic antitumor activity against mouse H22 cells implanted in mouse assessed as tumor growth inhibition at 50 mg/kg, ip or ig qd administered for 10 consecutive days measured after 24 hrs post last dose in presence of sorafenib relative to control; type: functional; details: read-out: TGI
HepG2 [17] = experiment: Synergistic downregulation of Ki67 protein levels in human HepG2 cells at 5 ug/ml after 48 hrs in presence of sorafenib by Western blot analysis; type: functional, cell-based
HepG2 [18] = experiment: Synergistic downregulation of C-myc protein levels in human HepG2 cells at 5 ug/ml after 48 hrs in presence of sorafenib by Western blot analysis; type: functional, cell-based

Row | Structure (SMILES) | pIC50 (HeLa) | pIC50 (HepG2 [1]) | pIC50 (MGC-803) | other results
1 | CNC(=O)c1cc(Oc2ccc(NC(=O)Nc3ccc(Cl)c(C(F)(F)F)c3)cc2)ccn1 [SORAFENIB] |  |  |  | Activity (HepG2 [2]): Active; inhibition in vivo at 50 mg/kg (H22 [3]): 55.8 to 56.5%; Activity (HepG2 [4]): Dose-dependent effect; Activity (HepG2 [5]): Dose-dependent effect; Activity (HepG2 [6]): Dose-dependent effect; Activity (HepG2 [7]): Dose-dependent effect; Activity (HepG2 [8]): Active; Activity (HepG2 [9]): Active
2 | COc1cc2c3c(c1O)-c1c(ccc(O)c1OC)C[C@@H]3N(C)CC2 | 3.96 | 3.81 | 3.91 | 
3 | COc1cc(NC(=O)Nc2ccc(F)cc2)c2c(c1OC(=O)Nc1ccc(F)cc1)-c1c(OC)c(OC)cc3c1[C@H](C2)N(C)CC3 | 4.57 | 4.57 | 4.60 | 
4 | COc1ccc2c(c1O)-c1c(O)c(OC)cc3c1[C@H](C2)N(C)CC3 [CORYTUBERINE] | < 3.70 | < 3.70 | < 3.70 | 
5 | COc1cc(NC(=O)Nc2ccccc2Cl)c2c(c1OC(=O)Nc1ccccc1Cl)-c1c(OC)c(OC)cc3c1[C@H](C2)N(C)CC3 | 4.57 | 4.76 | 4.57 | 
6 | COc1cc(N)c2c(c1O)-c1c(OC)c(OC)cc3c1[C@H](C2)N(C)CC3 | 4.36 | 4.29 | 4.21 | 
7 | COc1ccc2c(c1O)-c1c(OC)c(OC)cc3c1[C@H](C2)N(C)CC3 [ISOCORYDINE] | < 3.70 | < 3.70 | < 3.70 | 
8 | COc1cc2c3c(c1O)-c1c(ccc(OC)c1OC)C[C@@H]3N(C)CC2 [CORYDINE] | < 3.70 | < 3.70 | < 3.70 | 
9 | COc1cc(NC(=O)Nc2ccc(C(F)(F)F)cc2)c2c(c1OC(=O)Nc1ccc(C(F)(F)F)cc1)-c1c(OC)c(OC)cc3c1[C@H](C2)N(C)CC3 | 4.32 | 4.36 | 4.41 | 
10 | COc1cc(NC(=O)Nc2ccc(C)cc2)c2c(c1OC(=O)Nc1ccc(C)cc1)-c1c(OC)c(OC)cc3c1[C@H](C2)N(C)CC3 | 4.72 | 4.79 | 4.59 | 
11 | COc1cc(NC(=O)Nc2ccccc2C)c2c(c1OC(=O)Nc1ccccc1C)-c1c(OC)c(OC)cc3c1[C@H](C2)N(C)CC3 | 4.36 | 4.50 | 4.64 | 

Continued, in another order:

Row | pIC50 (HeLa) | pIC50 (HepG2 [1]) | pIC50 (MGC-803) | Structure (SMILES) | other results
12 | 4.33 | 4.27 | 4.32 | COc1cc(NC(=O)Nc2ccc(SC)cc2)c2c(c1O)-c1c(OC)c(OC)cc3c1[C@H](C2)N(C)CC3 | 
13 | 4.13 | 4.20 | 4.42 | COc1cc(NC(=O)/C=C/c2ccccc2)c2c(c1O)-c1c(OC)c(OC)cc3c1[C@H](C2)N(C)CC3 | 
14 | 4.66 | 4.55 | 4.52 | COc1cc(NC(=O)Nc2ccc(Cl)c(Cl)c2)c2c(c1O)-c1c(OC)c(OC)cc3c1[C@H](C2)N(C)CC3 | 
15 | 4.53 | 4.52 | 4.57 | COc1cc(NC(=O)c2cc(Cc3n[nH]c(=O)c4ccccc34)ccc2F)c2c(c1O)-c1c(OC)c(OC)cc3c1[C@H](C2)N(C)CC3 | 
16 | 4.48 | 4.54 | 4.49 | CCC(=O)NC1CCN(c2ccc(NC(=O)Nc3cc(OC)c(O)c4c3C[C@H]3c5c(cc(OC)c(OC)c5-4)CCN3C)cc2C(F)(F)F)CC1 | 
17 | 5.20 | 5.12 | 4.95 | COc1cc(NC(=O)Nc2ccc(N3CCC(CN)CC3)c(C(F)(F)F)c2)c2c(c1O)-c1c(OC)c(OC)cc3c1[C@H](C2)N(C)CC3 | Activity (HepG2 [10]): Active; Activity (HepG2 [4]): Dose-dependent effect; Activity (HepG2 [11]): Active; inhibition in vivo at 100 mg/kg (H22 [12]): 73.8%; Activity (HepG2 [13]): Active; inhibition in vivo at 50 mg/kg (H22 [14]): 27.2%; Activity (HepG2 [5]): Dose-dependent effect; Activity (HepG2 [6]): Dose-dependent effect; Activity (HepG2 [7]): Dose-dependent effect; Activity (HepG2 [15]): Active; inhibition in vivo at 50 mg/kg (H22 [16]): 66.5%; Activity (HepG2 [17]): Active; Activity (HepG2 [18]): Active
18 | 4.43 | 4.43 | 4.45 | COc1cc(NC(=O)Nc2ccccc2Cl)c2c(c1O)-c1c(OC)c(OC)cc3c1[C@H](C2)N(C)CC3 | 
19 | 4.30 | 4.16 | 4.46 | COc1cc(NC(=O)c2cccnc2)c2c(c1O)-c1c(OC)c(OC)cc3c1[C@H](C2)N(C)CC3 | 
20 | 4.21 | 4.12 | 4.25 | COc1cc(NC(=O)c2ccccc2O)c2c(c1O)-c1c(OC)c(OC)cc3c1[C@H](C2)N(C)CC3 | 
21 | 4.78 | 4.67 | 4.66 | COc1cc(NC(=O)c2ccc(Cl)c(C(F)(F)F)c2)c2c(c1O)-c1c(OC)c(OC)cc3c1[C@H](C2)N(C)CC3 | 
22 | 4.57 | 4.59 | 4.54 | COc1cc(NC(=O)Nc2ccc(N3CCC(NC(=O)OC(C)(C)C)CC3)c(C(F)(F)F)c2)c2c(c1O)-c1c(OC)c(OC)cc3c1[C@H](C2)N(C)CC3 | 
23 | 4.31 | 4.34 | 4.24 | COc1cc(NC(=O)Nc2ccc(C(F)(F)F)cc2)c2c(c1O)-c1c(OC)c(OC)cc3c1[C@H](C2)N(C)CC3 | 
24 | 4.49 | 4.68 | 4.69 | CCC(=O)NCC1CCN(c2ccc(NC(=O)Nc3cc(OC)c(O)c4c3C[C@H]3c5c(cc(OC)c(OC)c5-4)CCN3C)cc2C(F)(F)F)CC1 | 
25 | 4.66 | 4.72 | 4.63 | COc1cc(NC(=O)Nc2ccc(N3CCC(CNC(=O)OC(C)(C)C)CC3)c(C(F)(F)F)c2)c2c(c1O)-c1c(OC)c(OC)cc3c1[C@H](C2)N(C)CC3 | 
26 | 4.47 | 4.54 | 4.49 | COc1cc(NC(=O)Nc2ccc(N3CCC(N)CC3)c(C(F)(F)F)c2)c2c(c1O)-c1c(OC)c(OC)cc3c1[C@H](C2)N(C)CC3 | 
27 | 4.50 | 4.40 | 4.30 | COC1=CC(=O)c2cc3c4c(cc(OC)c(OC)c4c2C1=O)CCN3C | 
